Assay results from publication PMC5357639 (Frontiers in Chemistry, 2017).
Where a SMILES comes first, the peptide text is derived from it. The star is where a group is joined. Orn(α-tetramethylguanidino) = CN(C)C(=N[C@@H](CCCN)C(=O)*)N(C)C

Key:
70S ribosomes = conditions: binding to 70S ribosomes; ref Krizsan et al., 2014; cited from earlier work
Text: Antimicrobial peptides (AMPs) are considered as promising alternatives to common antibiotics that threateningly lose their therapeutic potentials against multidrug-resistant pathogens (Fox, [2013]; Wang et al., [2015]). In contrast to approved therapeutic peptide hormones, antimicrobial peptides have to be administered at much higher doses, which may amplify general drawbacks of peptide therapeutics. For example, the diabetes peptide drugs exenatide and pramlintide are given at daily doses of 20 μg (Byetta®; ~0.5 μg/kg) and 120 μg (Symlin®; ~1.5 μg/kg; Heine et al., [2005]; Hay et al., [2015]) ...

in vitro = in vitro ADME, CD-1 mice; conditions: female, CD-1, mouse, cerebrospinal or other body fluid
Protocol: Peritoneal lavage (1.5–2 mL) were collected from three euthanized female CD-1 mice (14 weeks, 32–33 g) after injecting sterile PBS intraperitoneal (4 mL). Peptides were incubated with aliquots (95 μL) of fresh lavage (75 μg/mL, 37°C, 750 rpm). After 0, 30, and 60 min trichloroacetic acid (25 μL, 15% w/v) was added to the samples to precipitate proteins, incubated on ice (10 min), and centrifuged (5 min, 12.400 × g). Supernatants were neutralized with sodium hydroxide (1 mol/L) and analyzed by RP-HPLC using a Poroshell 120 SB-C18-column (2.1 mm internal diameter, 100 mm length, 2.7 μm particle size, 12 nm pore size, Agilent Technologies Inc., Santa Clara, CA, USA) at 60°C and an aqueous acetonitrile gradient containing trifluoroacetic acid (0.1%, v/v). Absorbance was recorded at a wavelength of 214 nm.

in vivo = test: in vivo; design: species or system CD-1 mice; conditions: iv; for level at 5 min: female, CD-1, mouse, 5 mg/kg; for Time within which peptide is cleared: mouse
Text: A protocol to quantify Api88, Api137, and their major metabolites was established analog to that of oncocin derivatives, reported recently (Schmidt et al., [2016]). Briefly, an Alliance® 2695 HPLC system was coupled online to an ESI-QqLIT-MS (4,000 QTRAP®) equipped with a TurboV™ ion-spray source and operated in positive ion MRM mode using the Analyst® 1.6 software. Separation was achieved on a Jupiter C18-column (internal diameter 1 mm, length 150 mm, particle size 5 μm, pore size 300 Å) at 55 °C using a linear 5-min gradient from 2.7 to 20.7% aqueous acetonitrile containing ammonium formate (26 mmol/L, pH 3.0). Further details about instrumentation, MRM optimization, and MS settings are provided as Supplementary Material (Tables S1–S4, Method M1).
Female CD-1 mice (20–23 g weight, 7 weeks) were injected intravenously (10 mL/kg) in the tail vein with peptides (0.5 g/L) dissolved in sterile saline (0.9%, w/v) corresponding to doses of 5 mg/kg body weight. Animals (n = 4 per time point and peptide) were euthanized 5, 10, 20, 40, and 60 min post-injection by carbon dioxide inhalation and exsanguination. For further details of sample preparation and recovery experiments see Supplementary Material (Methods M2, M3).
Method M1: M ultiple reaction monitoring (MRM) transitions for apidaecin peptides Peptides (1 µ g/ m L ) were dissolved inaqueous acetonitrile (25% or 60% v/ v) containing either formate buffer (26 mmol/ L, pH 2.6, 3.0, 3.3 or 3.9 ) or formic acid (0.1% v/v ) and infused (flow rate 5 µ L/min, PHD 2600 s yringe pump) into the ES I-Q q L IT -MS (4000 QTRAP®) to optimize buffer composition and MRM. Transitions were selected from the tandem mass spectra (MS/MS) and confirmed on an ESI-QqTOF-MS (QSTAR® pulsar I) providing higher mass resolutions and mass accuracies than the QTRAP ®. The settings for declustering potential (DP), collision potential (CE), and collision cell exit potential (CXP) were optimized by ramping the respective pot entials using the compound optimization tool of the Anal yst® software.
Method M2: Sample preparation
Frozen organs (5 per group) wer e homogenized in sterile PBS (500 µ L) containing Protease Inhibitor Mix M (1% v/v; SERVA Electrophoresis GmbH, Heidelberg, German y) using an Ultra-Turr ax ® T25 basic (IKA-Werke, Staufen, German y, rotational speed 21,500 min-1) for 1 min. […]
Limits of detection (LOD) and quantification (LOQ) corresponded to the lowest peptide concentrations in water, plasma, or homogenates of brain, liver , and kidney providing a peak height exceeding the noise in the retention time window at least threefol d (LOD) or ten times (LOQ). Recover y r ates o f SPE and matrix effects were determined b y the p eak areas of spiked

SMILES: CC[C@H](C)[C@H](NC(=O)[C@H](Cc1ccc(O)cc1)NC(=O)[C@@H](NC(=O)[C@@H]1CCCN1C(=O)[C@H](CCCNC(=N)N)NC(=O)[C@H](CC(N)=O)NC(=O)[C@H](CC(N)=O)NC(=O)[C@H](CCCN)N=C(N(C)C)N(C)C)C(C)C)C(=O)N1CCC[C@H]1C(=O)N[C@@H](CCCNC(=N)N)C(=O)N1CCC[C@H]1C(=O)N[C@@H](CCCNC(=N)N)C(=O)N1CCC[C@H]1C(=O)N1CCC[C@H]1C(=O)N[C@@H](Cc1c[nH]cn1)C(=O)N1CCC[C@H]1C(=O)N[C@@H](CCCNC(=N)N)C(=O)N[C@@H](CC(C)C)C(N)=O [Api88] ({Orn(α-tetramethylguanidino)}-NNRPVYIPRPRPPHPRL-NH2)
- Kd (70S ribosomes): 1200 nM
- remaining at 1 h, 75 μg/mL (in vitro): > 60%
- level at 5 min (in vivo): 1000 ng/mL
- Time within which peptide is cleared (in vivo): ~ 60 min

SMILES: CC[C@H](C)[C@H](NC(=O)[C@H](Cc1ccc(O)cc1)NC(=O)[C@@H](NC(=O)[C@@H]1CCCN1C(=O)[C@H](CCCNC(=N)N)NC(=O)[C@H](CC(N)=O)NC(=O)[C@H](CC(N)=O)NC(=O)[C@H](CCCN)N=C(N(C)C)N(C)C)C(C)C)C(=O)N1CCC[C@H]1C(=O)N[C@@H](CCCNC(=N)N)C(=O)N1CCC[C@H]1C(=O)N[C@@H](CCCNC(=N)N)C(=O)N1CCC[C@H]1C(=O)N1CCC[C@H]1C(=O)N[C@@H](Cc1c[nH]cn1)C(=O)N1CCC[C@H]1C(=O)N[C@@H](CCCNC(=N)N)C(=O)N[C@@H](CC(C)C)C(=O)O [Api137] ({Orn(α-tetramethylguanidino)}-NNRPVYIPRPRPPHPRL-OH)
- Kd (70S ribosomes): 560 nM
- half-life at 75 μg/mL (in vitro): ~20 min
- level at 5 min (in vivo): 400 ng/mL
- Time within which peptide is cleared (in vivo): ~ 60 min
